The values that follow come from patent publication EP3609473B1, “ORAL COMPOSITIONS FOR THE TREATMENT OF IRON […]” (Labomar S.p.A., priority 2017, dated 2018).

The conditions of this series: after SGF, 50 ml simulated intestinal fluid (SIF) added, pH settled at 6.0 with NaOH 2.5% w/v.

The structures appear in SMILES notation.

Protocol: The solid composition (A) is maintained for 90 minutes (corresponding to the empty stomach emptying time) in a simulated gastric environment (SGF) pH 1.5 by adding HCl, thermostated at 37°C.
Subsequently, 50 ml of simulated intestinal fluid (SIF) are added to the system to simulate the transit in the first intestinal tract and the pH is settled at 6.0 with NaOH 2.5% w/v.

In the case of `NCC(=O)[O-].NCC(=O)[O-].[Fe+2]` [bisglycinate iron, ferrous bisglycinate], the “colour of the liquid (purple = iron in reduced form; amber = no more reducible ferric oxides)” value is recorded as “amber-coloured liquid”.
